Laboratory results taken from paper PMC12647017, “Discovery and optimization of a synthetic small protein domain targeting antibodies” (Frontiers in Bioengineering and Biotechnology, 2025).

Key:
[1] = Partition of expressed E6 between soluble and insoluble fraction; assay type: physicochemical; details: E. coli Rosetta (DE3), supplementation with L-arginine / L-glutamic acid (tests E and H), Tris-Tricine gel
Protocol: The gene corresponding to the chosen E6 sequence was cloned according to the detail information in Supplementary Material. The bacterial clones with the insert DNA were selected for protein expression in E. coli Rosetta (DE3) cells. For this purpose, the DNA was purified with NZYMiniprep kit and was used for transformation onto E. coli Rosetta competent cells following the protocol of the manufacturer. For the protein expression, a pre-inoculum was prepared adding 5 µL of the transformed colonies glycerol stock in 5 mL LB medium containing ampicillin (vector resistance) and […] (strain resistance). After 6 h of incubation, 1 mL of the culture was added to 100 mL of LB medium and was incubated overnight at 37 °C at 225 rpm. On the following day, 10 mL of the culture was inoculated onto 1 L of LB medium and was incubated at 37 °C at 225 rpm. […]
The WWp5_4 scaffold is composed by 42 amino acid residues with a molecular weight of approximately 5 kDa. […] The protein expression profile was evaluated under normal expression conditions (without supplementation of amino acids, test A) and a strong band at ∼ 5 kDa is visible (Supplementary Figure S3A). […] To assess whether test E or test H has higher content of soluble E6, bacterial cells were lysed and the soluble supernatant analysed. […]

human IgG = assay: Microscale Thermophoresis (MST) with IgG-FITC; assay type: binding; details: E6, IgG-FITC 50 nM, E6 23.5 µM to 0.7 nM, 50 mM MOPS 0.05% (v/v) Tween-20 pH 7, 25 °C, n = 4
Protocol: For MST assays of E6, IgG was conjugated with fluoresceine isothiocyanate (FITC) using standard protocols. The conjugated IgG-FITC was used at a fixed concentration of 50nM and 16 serial dilutions of E6 protein (from 23.5 µM to 0.7 nM) were made in 50 mM MOPS 0.05% (v/v) Tween-20 pH 7.
For MST assays of E6_M2_T2, the target was hIgG-FITC (F9636, Sigma) at a constant concentration of 25 nM. For the E6_M2_T2 ligand, 16 samples were prepared in variable concentrations starting from 695 nM and using a serial dilution of 1:2 up to a minimum concentration of […] using PBS1x-0.05% (v/v) Tween-20 pH7.4.
Samples were transferred to a standard capillary (Monolith NT.115 Capillary, Nanotemper) with the following settings: medium MST-power, excitation power at 20%, with excitation in Nano-Blue, with thermostat at 25 °C. The signal of the samples was read in triplicates using a Monolith NT.115 (Nanotemper) and the signal was processed in the manufacturer software with FitModel: Kd and Hill. The binding parameters (KD and EC50) and were estimated automatically in the MST software.

SMGLPPGWDEYKT RRFKL GKTYYYNH HILS KTSTWTDPRMSS [Clone E6]
soluble fraction of expressed protein [1]: 16% | EC50 (human IgG): 0.146 µM | Kd (human IgG; read-out: dissociation constant, KD): 0.133 ± 0.048 µM
